Drawing on patent US10576085B2, “Substituted aminopurine compounds, compositions thereof, and methods of treatment therewith” (Signal Pharmaceuticals, LLC, priority 2016, dated 2020), this text covers IC50 for one compound.

Holding throughout (assay): Proliferation, CellTiter-Glo, 72 h
Holding throughout (format): cell-based

The test system of assay [1] is SW48. The note with it: Homo sapiens; SW48, CRC; CTNNB1 (S33Y); EGFR (G179S); β-catenin Active.
The test system of assay [2] is Colo 205. Particulars: Homo sapiens; Colo 205, CRC; BRAF (V600E); β-catenin status N/A. As for the experimental part: HCC cell lines were treated with DMSO or increasing concentrations of Compound 1 for 72 h. Specifically, Compound 1 at various concentrations in dimethyl sulfoxide (DMSO) was spotted via an acoustic dispenser (EDC ATS-100) into an empty 384-well plate. Compound 1 was spotted in a 10-point serial dilution fashion (3-fold dilution) in duplicate within the plate. Replicates of plates spotted with Compound 1 were made for use with different cell lines. After compound plate replication, all plates were sealed (Agilent ThermoLoc) and stored at −20° C. for up to 1 month. When ready for testing, plates were removed from the freezer, thawed, and unsealed just prior to the addition of the test cells.
Prior to testing, cells were grown and expanded in culture flasks to provide sufficient amounts of starting material. Cells were then diluted to the appropriate densities and added directly to the compound-spotted 384-well plates. […] At the time when compound was added (t0), initial cell number was assessed via a viability assay (Cell Titer-Glo) by quantifying the level of luminescence generated by ATP present in viable cells. After 72 h, cell viability of compound-treated cells was assessed via Cell Titer-Glo and luminescence measurement. The apoptotic response to Compound 1 was assessed by quantifying the activities of caspase 3 and caspase 7 (Caspase 3/7-Glo) in treated cells and DMSO control cells. […]

The subject of assay [3] is AGS. The note with it: Homo sapiens, Gastric, CTNNB1 (G43E), KRAS (G12D), β-catenin Active.

With `C[C@]1(C(N)=O)CC[C@@H](n2c(Nc3c(Cl)cc(Cl)cc3Cl)nc3cnc(N[C@@H]4CCOC[C@H]4F)nc32)CC1` [Compound 1, cis-4-[2-{[(3S,4R)-3-fluorooxan-4-yl]amino}-8-(2,4,6-trichloroanilino)-9H-purin-9-yl]-1-methyl cyclohexane-1-carboxamide], the half-inhibitory concentration (IC50) (as a rule, the midpoint of a concentration-inhibition curve) in assay [1] worked out at 9 nM; in assay [2], 36 nM; in assay [3], 28 nM.
